Assay results reported in publication PMC8550792, “Evolution of kinase polypharmacology across HSP90 drug discovery” (Cell Chemical Biology, 2021).

How the values were obtained:
Assay in all cases: biochemical
Format in all cases: biochemical
382 unique human kinases [1] = biological target: T1, 382 unique human kinases (Homo sapiens, UniProt Q13177); settings: PAK2, 10 uM; for remaining activity at 10 µM: read-out: % Enzyme Activity (relative to DMSO controls)
T1 construct: purchased Reaction Biology (HotSpot contract assay)

382 unique human kinases [2] = biological target: T2, 382 unique human kinases (Homo sapiens, UniProt Q9UM73, C1156Y); settings: ALK (C1156Y), [ATP] 5 µM, compound 10 uM; for remaining activity at 10 µM: read-out: % Enzyme Activity (relative to DMSO controls)
T2 construct: purchased Reaction Biology (HotSpot contract assay)

382 unique human kinases [3] = biological target: T3, 382 unique human kinases (Homo sapiens, UniProt Q9UQB9); settings: Aurora C, 10 uM; for remaining activity at 10 µM: read-out: % Enzyme Activity (relative to DMSO controls)
T3 construct: purchased Reaction Biology (HotSpot contract assay)
T3 sequence (Q9UQB9 1-309): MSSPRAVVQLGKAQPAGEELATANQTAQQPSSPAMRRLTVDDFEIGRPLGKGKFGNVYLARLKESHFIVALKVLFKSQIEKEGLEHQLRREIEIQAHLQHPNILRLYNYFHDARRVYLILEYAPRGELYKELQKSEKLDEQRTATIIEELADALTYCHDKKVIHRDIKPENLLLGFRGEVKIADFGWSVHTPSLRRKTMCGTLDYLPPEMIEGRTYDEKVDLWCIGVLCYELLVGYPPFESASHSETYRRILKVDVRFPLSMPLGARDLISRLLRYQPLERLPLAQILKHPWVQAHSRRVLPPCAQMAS

382 unique human kinases [4] = biological target: T4, 382 unique human kinases (Homo sapiens, UniProt Q9H2X6); settings: HIPK2, 10 uM; for remaining activity at 10 µM: read-out: % Enzyme Activity (relative to DMSO controls)
T4 construct: purchased Reaction Biology (HotSpot contract assay)

382 unique human kinases [5] = biological target: T5, 382 unique human kinases (Homo sapiens, UniProt Q14680); settings: MELK, [ATP] 50 µM, compound 10 uM; for remaining activity at 10 µM: read-out: % Enzyme Activity (relative to DMSO controls)
T5 construct: purchased Reaction Biology (HotSpot contract assay)

382 unique human kinases [6] = biological target: T6, 382 unique human kinases (Homo sapiens, UniProt P54756); settings: EPHA5, [ATP] 30 µM, compound 10 uM; for remaining activity at 10 µM: read-out: % Enzyme Activity (relative to DMSO controls)
T6 construct: purchased Reaction Biology (HotSpot contract assay)

382 unique human kinases [7] = biological target: T7, 382 unique human kinases (Homo sapiens, UniProt P07332); settings: FES/FPS, 10 uM; for remaining activity at 10 µM: read-out: % Enzyme Activity (relative to DMSO controls)
T7 construct: purchased Reaction Biology (HotSpot contract assay)

382 unique human kinases [8] = biological target: T8, 382 unique human kinases (Homo sapiens, UniProt P10721, D816V); settings: c-Kit (D816V), [ATP] 10 µM, compound 10 uM; for remaining activity at 10 µM: read-out: % Enzyme Activity (relative to DMSO controls)
T8 construct: purchased Reaction Biology (HotSpot contract assay)

382 unique human kinases [9] = biological target: T9, 382 unique human kinases (Homo sapiens, UniProt P30291); settings: kinase WEE1, compound 10 uM; for remaining activity at 10 µM: read-out: % Enzyme Activity (relative to DMSO controls)
T9 construct: purchased Reaction Biology (HotSpot contract assay)

382 unique human kinases [10] = biological target: T10, 382 unique human kinases (Homo sapiens, UniProt Q9H3Y6); settings: SRMS, compound at 10 uM, duplicate values; for remaining activity at 10 µM: read-out: % Enzyme Activity (relative to DMSO controls)
T10 construct: purchased Reaction Biology (HotSpot contract assay)

382 unique human kinases [11] = biological target: T11, 382 unique human kinases (Homo sapiens, UniProt P07949, R813Q); settings: RET (R813Q), 10 uM; for remaining activity at 10 µM: read-out: % Enzyme Activity (relative to DMSO controls)
T11 construct: purchased Reaction Biology (HotSpot contract assay)

382 unique human kinases [12] = biological target: T12, 382 unique human kinases (Homo sapiens, UniProt Q12866, A708S); settings: c-MER (A708S), 10 uM; for remaining activity at 10 µM: read-out: % Enzyme Activity (relative to DMSO controls)
T12 construct: purchased Reaction Biology (HotSpot contract assay)
T12 sequence (Q12866 21-999 A708S): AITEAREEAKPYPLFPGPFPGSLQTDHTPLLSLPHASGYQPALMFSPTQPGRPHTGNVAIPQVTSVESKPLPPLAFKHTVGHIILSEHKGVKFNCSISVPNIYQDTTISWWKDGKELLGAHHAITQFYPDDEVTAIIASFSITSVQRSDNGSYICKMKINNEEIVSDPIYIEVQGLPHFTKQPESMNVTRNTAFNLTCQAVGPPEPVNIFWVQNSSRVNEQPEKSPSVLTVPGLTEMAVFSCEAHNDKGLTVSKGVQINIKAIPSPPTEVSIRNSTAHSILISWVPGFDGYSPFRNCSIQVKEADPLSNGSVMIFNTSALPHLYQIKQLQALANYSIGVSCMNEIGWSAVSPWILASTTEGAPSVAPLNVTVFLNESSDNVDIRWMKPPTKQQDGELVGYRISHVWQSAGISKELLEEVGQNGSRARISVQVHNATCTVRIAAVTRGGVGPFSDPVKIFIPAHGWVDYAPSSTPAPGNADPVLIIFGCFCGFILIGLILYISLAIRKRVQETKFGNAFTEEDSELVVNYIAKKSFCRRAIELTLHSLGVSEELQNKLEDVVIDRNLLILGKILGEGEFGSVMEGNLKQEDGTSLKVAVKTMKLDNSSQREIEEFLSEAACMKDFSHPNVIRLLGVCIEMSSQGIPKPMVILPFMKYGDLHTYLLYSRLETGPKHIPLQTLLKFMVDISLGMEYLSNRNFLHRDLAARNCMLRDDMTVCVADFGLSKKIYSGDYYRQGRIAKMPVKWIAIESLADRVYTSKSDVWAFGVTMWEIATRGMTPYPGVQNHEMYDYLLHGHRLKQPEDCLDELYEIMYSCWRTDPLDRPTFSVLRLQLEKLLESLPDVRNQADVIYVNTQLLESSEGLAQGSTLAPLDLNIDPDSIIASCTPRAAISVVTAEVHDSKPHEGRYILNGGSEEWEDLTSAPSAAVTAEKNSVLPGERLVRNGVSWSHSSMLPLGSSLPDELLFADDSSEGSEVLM

382 unique human kinases [13] = biological target: T13, 382 unique human kinases (Homo sapiens, UniProt Q9Y2U5); settings: MEKK2, compound at 10 uM, duplicate values; for remaining activity at 10 µM: read-out: % Enzyme Activity (relative to DMSO controls)
T13 construct: purchased Reaction Biology (HotSpot contract assay)
T13 sequence (Q9Y2U5 1-619): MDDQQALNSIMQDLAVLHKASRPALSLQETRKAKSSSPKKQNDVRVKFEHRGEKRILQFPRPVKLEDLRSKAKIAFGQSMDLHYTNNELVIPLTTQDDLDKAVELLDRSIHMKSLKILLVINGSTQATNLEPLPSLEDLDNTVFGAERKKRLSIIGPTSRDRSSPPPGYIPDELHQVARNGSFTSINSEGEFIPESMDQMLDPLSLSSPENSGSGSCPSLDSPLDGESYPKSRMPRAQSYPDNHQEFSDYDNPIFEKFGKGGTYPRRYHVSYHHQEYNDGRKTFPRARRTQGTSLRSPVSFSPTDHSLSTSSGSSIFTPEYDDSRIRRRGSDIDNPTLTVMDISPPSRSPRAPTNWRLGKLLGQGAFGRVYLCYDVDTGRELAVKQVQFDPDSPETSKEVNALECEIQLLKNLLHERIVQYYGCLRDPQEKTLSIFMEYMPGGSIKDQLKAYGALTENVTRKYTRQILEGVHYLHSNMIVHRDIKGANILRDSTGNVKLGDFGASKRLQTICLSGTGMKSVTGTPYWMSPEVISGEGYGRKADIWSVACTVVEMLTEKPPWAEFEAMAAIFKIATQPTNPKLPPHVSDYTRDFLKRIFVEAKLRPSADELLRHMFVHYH

T9 sequence (P30291 whole entry): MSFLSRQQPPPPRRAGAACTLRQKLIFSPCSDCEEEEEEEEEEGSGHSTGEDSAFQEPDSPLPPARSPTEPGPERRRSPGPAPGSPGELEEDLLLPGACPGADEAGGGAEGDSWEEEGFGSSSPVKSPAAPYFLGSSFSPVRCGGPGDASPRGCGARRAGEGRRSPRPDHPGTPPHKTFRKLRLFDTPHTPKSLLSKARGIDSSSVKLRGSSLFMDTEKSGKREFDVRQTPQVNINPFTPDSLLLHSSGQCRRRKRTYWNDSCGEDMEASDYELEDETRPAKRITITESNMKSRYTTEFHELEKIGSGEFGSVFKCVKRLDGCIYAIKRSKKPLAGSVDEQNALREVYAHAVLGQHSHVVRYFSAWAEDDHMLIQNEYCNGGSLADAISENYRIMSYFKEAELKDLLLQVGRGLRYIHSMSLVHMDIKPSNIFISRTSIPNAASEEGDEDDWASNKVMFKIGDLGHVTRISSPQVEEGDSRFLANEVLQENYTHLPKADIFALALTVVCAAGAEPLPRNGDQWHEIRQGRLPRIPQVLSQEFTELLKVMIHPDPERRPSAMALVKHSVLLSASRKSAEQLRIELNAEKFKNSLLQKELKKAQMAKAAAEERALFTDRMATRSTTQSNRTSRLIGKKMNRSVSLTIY
T2 sequence (Q9UM73 19-1620 C1156Y): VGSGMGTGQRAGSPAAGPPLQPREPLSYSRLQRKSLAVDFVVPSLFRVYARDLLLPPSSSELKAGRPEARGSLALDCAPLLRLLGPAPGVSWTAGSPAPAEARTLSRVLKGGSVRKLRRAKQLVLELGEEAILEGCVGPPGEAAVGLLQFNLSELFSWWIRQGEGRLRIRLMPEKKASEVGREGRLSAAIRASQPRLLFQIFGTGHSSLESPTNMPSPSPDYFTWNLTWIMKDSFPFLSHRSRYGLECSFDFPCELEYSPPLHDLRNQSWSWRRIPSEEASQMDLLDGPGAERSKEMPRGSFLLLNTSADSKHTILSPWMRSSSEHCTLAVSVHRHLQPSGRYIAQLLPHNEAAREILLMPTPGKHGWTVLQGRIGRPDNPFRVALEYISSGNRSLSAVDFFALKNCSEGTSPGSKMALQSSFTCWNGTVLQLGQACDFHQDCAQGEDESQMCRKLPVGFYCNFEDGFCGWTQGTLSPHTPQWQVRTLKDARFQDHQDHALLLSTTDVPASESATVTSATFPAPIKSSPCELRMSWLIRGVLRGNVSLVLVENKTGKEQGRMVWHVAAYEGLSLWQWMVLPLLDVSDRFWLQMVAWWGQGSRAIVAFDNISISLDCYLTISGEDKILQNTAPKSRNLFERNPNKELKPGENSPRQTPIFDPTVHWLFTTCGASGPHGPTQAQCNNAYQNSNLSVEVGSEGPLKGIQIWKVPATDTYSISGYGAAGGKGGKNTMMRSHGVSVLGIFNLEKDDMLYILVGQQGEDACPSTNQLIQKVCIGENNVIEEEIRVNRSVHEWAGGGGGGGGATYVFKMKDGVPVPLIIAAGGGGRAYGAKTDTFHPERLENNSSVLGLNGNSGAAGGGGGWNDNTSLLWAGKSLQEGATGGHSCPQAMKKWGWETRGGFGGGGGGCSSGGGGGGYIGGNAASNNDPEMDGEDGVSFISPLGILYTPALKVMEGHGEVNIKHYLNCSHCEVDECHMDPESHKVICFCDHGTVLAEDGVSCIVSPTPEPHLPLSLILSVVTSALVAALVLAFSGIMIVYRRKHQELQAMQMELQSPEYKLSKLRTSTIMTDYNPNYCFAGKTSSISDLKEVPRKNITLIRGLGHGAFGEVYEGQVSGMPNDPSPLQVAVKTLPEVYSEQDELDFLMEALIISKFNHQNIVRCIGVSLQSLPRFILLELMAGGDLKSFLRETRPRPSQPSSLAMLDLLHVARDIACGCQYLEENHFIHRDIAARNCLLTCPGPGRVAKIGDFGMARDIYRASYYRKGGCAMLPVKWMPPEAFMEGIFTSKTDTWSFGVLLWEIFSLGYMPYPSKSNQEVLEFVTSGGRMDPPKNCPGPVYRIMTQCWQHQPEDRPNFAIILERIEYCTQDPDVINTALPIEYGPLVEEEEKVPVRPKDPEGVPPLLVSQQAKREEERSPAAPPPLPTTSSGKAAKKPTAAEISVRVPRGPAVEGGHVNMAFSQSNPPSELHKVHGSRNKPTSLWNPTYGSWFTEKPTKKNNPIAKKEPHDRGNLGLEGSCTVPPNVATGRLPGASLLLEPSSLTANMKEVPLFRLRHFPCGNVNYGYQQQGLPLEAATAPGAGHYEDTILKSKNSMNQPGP
T8 sequence (P10721 26-976 D816V): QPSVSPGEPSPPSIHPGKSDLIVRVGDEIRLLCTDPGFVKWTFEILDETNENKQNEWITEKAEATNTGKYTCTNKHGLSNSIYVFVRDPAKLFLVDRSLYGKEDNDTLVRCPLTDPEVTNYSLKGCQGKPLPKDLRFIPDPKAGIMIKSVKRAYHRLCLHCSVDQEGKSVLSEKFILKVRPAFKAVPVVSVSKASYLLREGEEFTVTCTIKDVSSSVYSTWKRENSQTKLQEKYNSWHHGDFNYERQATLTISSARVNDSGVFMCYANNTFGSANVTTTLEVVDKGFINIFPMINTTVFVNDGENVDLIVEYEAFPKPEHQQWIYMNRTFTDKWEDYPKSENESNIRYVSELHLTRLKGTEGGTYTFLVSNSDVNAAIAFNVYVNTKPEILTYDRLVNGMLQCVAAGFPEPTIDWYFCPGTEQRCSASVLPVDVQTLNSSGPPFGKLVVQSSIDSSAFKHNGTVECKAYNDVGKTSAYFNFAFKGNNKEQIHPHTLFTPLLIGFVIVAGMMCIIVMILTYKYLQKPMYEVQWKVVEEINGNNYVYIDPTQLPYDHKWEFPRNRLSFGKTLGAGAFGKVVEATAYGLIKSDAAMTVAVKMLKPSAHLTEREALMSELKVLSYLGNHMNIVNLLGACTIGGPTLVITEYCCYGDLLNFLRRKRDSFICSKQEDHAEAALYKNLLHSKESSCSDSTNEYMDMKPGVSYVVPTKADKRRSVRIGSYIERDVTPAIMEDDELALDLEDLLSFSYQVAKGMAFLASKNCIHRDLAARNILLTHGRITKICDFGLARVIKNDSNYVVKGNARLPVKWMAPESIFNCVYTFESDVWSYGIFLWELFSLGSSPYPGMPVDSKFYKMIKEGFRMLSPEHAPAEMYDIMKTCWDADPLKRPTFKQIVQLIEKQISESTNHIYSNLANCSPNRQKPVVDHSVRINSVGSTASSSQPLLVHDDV
T7 sequence (P07332 whole entry): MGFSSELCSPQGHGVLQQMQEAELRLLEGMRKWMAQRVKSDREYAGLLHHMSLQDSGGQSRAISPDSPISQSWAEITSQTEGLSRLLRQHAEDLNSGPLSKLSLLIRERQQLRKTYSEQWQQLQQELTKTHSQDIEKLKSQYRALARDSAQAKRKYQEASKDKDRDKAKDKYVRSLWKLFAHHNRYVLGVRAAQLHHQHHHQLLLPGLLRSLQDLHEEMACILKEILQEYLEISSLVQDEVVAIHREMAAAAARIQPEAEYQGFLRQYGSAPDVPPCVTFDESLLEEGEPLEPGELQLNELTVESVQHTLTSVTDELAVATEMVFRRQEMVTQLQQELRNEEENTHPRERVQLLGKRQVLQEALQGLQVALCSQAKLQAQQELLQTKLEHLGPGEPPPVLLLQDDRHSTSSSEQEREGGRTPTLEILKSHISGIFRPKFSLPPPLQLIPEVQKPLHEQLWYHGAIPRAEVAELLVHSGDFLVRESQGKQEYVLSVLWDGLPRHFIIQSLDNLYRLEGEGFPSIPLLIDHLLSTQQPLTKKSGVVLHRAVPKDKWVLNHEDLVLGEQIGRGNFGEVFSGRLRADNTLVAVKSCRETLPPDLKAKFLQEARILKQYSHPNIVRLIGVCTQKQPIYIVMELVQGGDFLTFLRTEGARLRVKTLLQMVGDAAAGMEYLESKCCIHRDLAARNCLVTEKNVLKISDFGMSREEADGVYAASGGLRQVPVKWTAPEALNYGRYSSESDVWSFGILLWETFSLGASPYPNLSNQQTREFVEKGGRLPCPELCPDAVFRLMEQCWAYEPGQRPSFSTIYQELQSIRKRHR
T1 sequence (Q13177 whole entry): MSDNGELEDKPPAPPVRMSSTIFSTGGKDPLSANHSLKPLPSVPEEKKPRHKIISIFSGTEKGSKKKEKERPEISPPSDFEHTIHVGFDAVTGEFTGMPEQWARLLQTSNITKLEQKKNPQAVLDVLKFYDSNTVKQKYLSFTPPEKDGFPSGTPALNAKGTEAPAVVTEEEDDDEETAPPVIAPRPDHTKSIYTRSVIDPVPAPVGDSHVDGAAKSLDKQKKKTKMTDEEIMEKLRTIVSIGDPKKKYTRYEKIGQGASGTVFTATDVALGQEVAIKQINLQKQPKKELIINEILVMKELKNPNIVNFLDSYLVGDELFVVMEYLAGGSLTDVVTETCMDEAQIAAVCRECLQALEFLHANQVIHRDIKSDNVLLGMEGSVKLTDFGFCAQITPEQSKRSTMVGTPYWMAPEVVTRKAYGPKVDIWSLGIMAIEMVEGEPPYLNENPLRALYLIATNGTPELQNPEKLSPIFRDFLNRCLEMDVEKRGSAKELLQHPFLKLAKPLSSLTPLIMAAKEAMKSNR
T10 sequence (Q9H3Y6 whole entry): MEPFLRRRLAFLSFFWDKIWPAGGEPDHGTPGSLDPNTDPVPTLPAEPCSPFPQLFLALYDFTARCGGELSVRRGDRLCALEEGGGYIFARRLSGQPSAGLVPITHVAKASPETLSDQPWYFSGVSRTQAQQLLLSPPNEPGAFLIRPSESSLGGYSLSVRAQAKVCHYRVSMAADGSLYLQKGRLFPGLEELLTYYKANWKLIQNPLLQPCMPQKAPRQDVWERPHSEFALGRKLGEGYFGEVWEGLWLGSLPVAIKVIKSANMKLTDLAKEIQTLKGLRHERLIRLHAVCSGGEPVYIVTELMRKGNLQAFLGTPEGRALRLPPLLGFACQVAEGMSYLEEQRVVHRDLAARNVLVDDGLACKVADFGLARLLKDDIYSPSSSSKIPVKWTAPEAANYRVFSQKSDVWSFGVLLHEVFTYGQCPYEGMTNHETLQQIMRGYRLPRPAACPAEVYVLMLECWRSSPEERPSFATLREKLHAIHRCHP

SMILES | remaining activity at 10 µM (382 unique human kinases [1]) [%] | remaining activity at 10 µM (382 unique human kinases [2]) [%] | remaining activity at 10 µM (382 unique human kinases [3]) [%] | remaining activity at 10 µM (382 unique human kinases [4]) [%] | remaining activity at 10 µM (382 unique human kinases [5]) [%] | remaining activity at 10 µM (382 unique human kinases [6]) [%] | remaining activity at 10 µM (382 unique human kinases [7]) [%] | remaining activity at 10 µM (382 unique human kinases [8]) [%] | remaining activity at 10 µM (382 unique human kinases [9]) [%] | remaining activity at 10 µM (382 unique human kinases [10]) [%] | remaining activity at 10 µM (382 unique human kinases [11]) [%] | remaining activity at 10 µM (382 unique human kinases [12]) [%] | remaining activity at 10 µM (382 unique human kinases [13]) [%] | other results
CCNC(=O)c1noc(-c2cc(C(C)C)c(O)cc2O)c1-c1ccc(CN2CCOCC2)cc1 [Luminespib] | 99.3 | 93.3 | 96 | 105 | 56.9 | 79.4 | 99.4 | 68.9 |  |  |  |  |  | % Enzyme Activity (relative to DMSO controls) (382 unique human kinases [1]): 99.27%; % Enzyme Activity (relative to DMSO controls) (382 unique human kinases [2]): 91.42%; % Enzyme Activity (relative to DMSO controls) (382 unique human kinases [3]): 94.32%; % Enzyme Activity (relative to DMSO controls) (382 unique human kinases [4]): 103.59%; % Enzyme Activity (relative to DMSO controls) (382 unique human kinases [5]): 56.86%; % Enzyme Activity (relative to DMSO controls) (382 unique human kinases [6]): 78.40%; % Enzyme Activity (relative to DMSO controls) (382 unique human kinases [7]): 99.33%; % Enzyme Activity (relative to DMSO controls) (382 unique human kinases [8]): 67.99%
CC(C)c1cc(-c2n[nH]c(=O)n2-c2ccc3c(ccn3C)c2)c(O)cc1O [Ganetespib (STA9090)] |  |  |  |  |  |  |  |  | 87.2 | 109 | 78 | 72.7 | 109 | 
CCNC(=O)c1noc(-c2cc(C(C)C)c(O)cc2O)c1-c1ccc(CN2CCOCC2)cc1 [Luminespib (AUY-922)] |  |  |  |  |  |  |  |  | 116 | 111 | 105 | 98.6 | 123 | % Enzyme Activity (relative to DMSO controls) (382 unique human kinases [9]): 114.11%; % Enzyme Activity (relative to DMSO controls) (382 unique human kinases [10]): 110.03%; % Enzyme Activity (relative to DMSO controls) (382 unique human kinases [11]): 103.53%; % Enzyme Activity (relative to DMSO controls) (382 unique human kinases [12]): 96.08%; % Enzyme Activity (relative to DMSO controls) (382 unique human kinases [13]): 118.79%
CC(C)c1cc(-c2n[nH]c(=O)n2-c2ccc3c(ccn3C)c2)c(O)cc1O [Ganetespib] | 99.6 | 20 | 92.9 | 101 | 44.5 | 55.6 | 98.6 | 30.4 |  |  |  |  |  | 
